Publication PMC10401645 (ACS Chemical Neuroscience, 2023)
Where two headings read alike, the source gives them in different places.

Columns and labels:
5-HT2A [1] = biological target: T1, 5-HT2A (Homo sapiens, UniProt P28223); assay: NanoBiT βarr2 recruitment assay at 5-HT2A; conditions: 2 h AUC; for EC50: β-arrestin2 EC50 (nM) (95% CI)
Target sequence in this assay (P28223 whole entry): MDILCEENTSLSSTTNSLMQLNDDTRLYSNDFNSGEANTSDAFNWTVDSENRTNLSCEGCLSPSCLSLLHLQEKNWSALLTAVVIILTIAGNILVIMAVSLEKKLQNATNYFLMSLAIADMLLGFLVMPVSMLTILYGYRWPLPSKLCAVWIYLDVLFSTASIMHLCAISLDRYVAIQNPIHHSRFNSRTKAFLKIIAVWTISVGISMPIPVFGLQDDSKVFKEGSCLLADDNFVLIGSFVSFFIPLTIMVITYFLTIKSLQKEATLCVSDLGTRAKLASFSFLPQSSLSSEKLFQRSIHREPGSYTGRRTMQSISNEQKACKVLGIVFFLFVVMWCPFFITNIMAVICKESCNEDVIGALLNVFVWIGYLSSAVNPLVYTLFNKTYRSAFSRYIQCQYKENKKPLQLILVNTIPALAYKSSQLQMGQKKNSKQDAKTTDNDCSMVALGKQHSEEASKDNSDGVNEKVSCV
Target sequence in this assay (P32121 whole entry partner): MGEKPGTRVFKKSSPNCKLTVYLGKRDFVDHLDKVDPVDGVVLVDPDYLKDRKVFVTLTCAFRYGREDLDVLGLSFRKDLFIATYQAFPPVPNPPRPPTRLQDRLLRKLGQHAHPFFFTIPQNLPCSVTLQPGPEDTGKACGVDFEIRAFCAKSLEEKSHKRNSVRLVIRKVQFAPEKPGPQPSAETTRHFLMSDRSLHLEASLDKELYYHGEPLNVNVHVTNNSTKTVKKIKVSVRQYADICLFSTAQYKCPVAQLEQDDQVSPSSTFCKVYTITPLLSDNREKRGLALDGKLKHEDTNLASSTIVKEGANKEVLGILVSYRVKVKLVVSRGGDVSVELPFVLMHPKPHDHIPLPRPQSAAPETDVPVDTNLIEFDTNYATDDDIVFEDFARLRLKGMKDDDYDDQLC

5-HT2A receptor = assay: Bias factor; conditions: LSD as reference agonist, 2 h AUC; positive = βarr2 preference
5-HT2A [2] = biological target: T1, 5-HT2A; assay: NanoBiT miniGαq recruitment assay at 5-HT2A; conditions: 2 h AUC; for EC50: LSD as reference agonist
Target sequence in this assay (P28223 whole entry): as the sequence (P28223 whole entry) above

5-HT2A [3] = biological target: T1, 5-HT2A; conditions: PI hydrolysis assay; cited from earlier work
Target sequence in this assay (P28223 whole entry, species assumed): as the sequence (P28223 whole entry) above
Target sequence in this assay (P32121 whole entry partner, species assumed): as the sequence (P32121 whole entry partner) above

SMILES	EC50 (5-HT2A [1]; LSD as reference agonist) [nM]	β (bias factor) (5-HT2A receptor)	EC50 (5-HT2A [2]; miniGαq EC50 (nM) (95% CI))	EC50 (5-HT2A [2]; miniGαq pEC50 (95% CI)) [nM]	β-arrestin2 EC50 (nM) (95% CI) (5-HT2A [1]; LSD as reference agonist)	EC50 (5-HT2A [3])	β-arrestin2 Emax (%) (95% CI) (5-HT2A [1]; normalized to Emax of LSD)	miniGαq Emax (%) (95% CI) (5-HT2A [2]; normalized to Emax of LSD)
CCOCc1cc(OC)c(CCN)cc1OC.Cl [1d, 2-(4-(Ethoxymethyl)-2,5-dimethoxyphenyl)ethan-1-amine Hydrochloride]	26.4	0.323	75					
COc1cc(CCN)c(OC)cc1C#N.Cl [2C-CN (1j), 4-(2-Aminoethyl)-2,5-dimethoxybenzonitrile Hydrochloride]	174	0.412	503					
COc1cc(CCN)c(OC)cc1C.Cl [2C-D (1b), 2-(2,5-Dimethoxy-4-methylphenyl)ethan-1-amine Hydrochloride]	16.4	0.372	59.4					
COc1cc([N+](=O)[O-])c(OC)cc1CCN.Cl [2C-N (1g), 2-(2,5-Dimethoxy-4-nitrophenyl)ethan-1-amine Hydrochloride]	32.2	0.305	92.5					
CCCc1cc(OC)c(CCN)cc1OC.Cl [2C-P (1c), 2-(2,5-Dimethoxy-4-propylphenyl)ethan-1-amine Hydrochloride]	10.2	0.313	37.6	37.2				
COc1cc(SC)c(OC)cc1CCN.Cl [2C-T (1e), 2-(2,5-Dimethoxy-4-(methylthio)phenyl)ethan-1-amine Hydrochloride]	13.1	0.343	37.1					
CCCSc1cc(OC)c(CCN)cc1OC.Cl [2C-T-7 (1f), 2-(2,5-Dimethoxy-4-(propylthio)phenyl)ethan-1-amine Hydrochloride]	4.99	0.291	14.3	14.1				
NCCc1c[nH]c2ccc(O)cc12 [5-HT, 5-hydroxytryptamine, reference compound]		0.680						
COc1cc([N+](=O)[O-])c(OC)cc1CCNCc1ccccc1F.Cl [25N-NBF (2g), 2-(2,5-Dimethoxy-4-nitrophenyl)-N-(2-fluorobenzyl)ethan-1-amine Hydrochloride]	14.2	0.858	74.7					
COc1cc([N+](=O)[O-])c(OC)cc1CCNCc1cccc2c1OCO2.Cl [25N-NBMD (2h), N-(Benzo[d][1,3]dioxol-4-ylmethyl)-2-(2,5-dimethoxy-4-nitrophenyl)ethan-1-amine Hydrochloride]	2	0.791	9.32					
COc1cc([N+](=O)[O-])c(OC)cc1CCNCc1ccccc1O.Cl [25N-NBOH (2e), 2-(((2,5-Dimethoxy-4-nitrophenethyl)amino)methyl)phenol Hydrochloride]	0.662	0.454	1.73		sub-nanomolar			
COc1cc([N+](=O)[O-])c(OC)cc1CCNCc1ccccc1OC.Cl [25N-NBOMe (2f), 2-(2,5-Dimethoxy-4-nitrophenyl)-N-(2-methoxybenzyl)ethan-1-amine Hydrochloride]	1.09	0.374	2.53			sub-nanomolar		
CCCSc1cc(OC)c(CCNCc2ccccc2O)cc1OC.Cl [25T7-NBOH (2c), 2-(((2,5-Dimethoxy-4-(propylthio)phenethyl)amino)methyl)phenol Hydrochloride]	13.9	0.209	17.5					
CCCSc1cc(OC)c(CCNCc2ccccc2OC)cc1OC.Cl [25T7-NBOMe (2d), 2-(2,5-Dimethoxy-4-(propylthio)phenyl)-N-(2-methoxybenzyl)ethan-1-amine Hydrochloride]	7.42	0.281	11.3					
COc1cc(SC)c(OC)cc1CCNCc1ccccc1O.Cl [25T-NBOH (2a), 2-(((2,5-Dimethoxy-4-(methylthio)phenethyl)amino)methyl)phenol Hydrochloride]	1.94	0.447	4.45					
COc1cc(SC)c(OC)cc1CCNCc1ccccc1OC.Cl [25T-NBOMe (2b), 2-(2,5-Dimethoxy-4-(methylthio)phenyl)-N-(2-methoxybenzyl)ethan-1-amine Hydrochloride]	2.05	0.332	4.22					
COc1cc(SC)c(OC)cc1CC(C)N.Cl (centres unmarked) [DOT (1h), 1-(2,5-Dimethoxy-4-(methylthio)phenyl)propan-2-amine Hydrochloride]	14.5	0.436	65.8					
CCCSc1cc(OC)c(CC(C)N)cc1OC.Cl (centres unmarked) [DOT-7 (1i), 1-(2,5-Dimethoxy-4-(propylthio)phenyl)propan-2-amine Hydrochloride]	2.18	0.305	7.63					
CCN(CC)C(=O)[C@@H]1C=C2c3cccc4[nH]cc(c34)C[C@H]2N(C)C1 [LSD, lysergic acid diethylamide, reference compound]		0					99.4 (92.5–106) %	98.4 (90.4–107) %
